Laboratory results: US12590062B2, “PD-1/PD-L1 inhibitors” (Gilead Sciences, Inc., priority 2017, dated 2026)

Key:
PD-1/PD-L1 = PD-1/PD-L1 (Homo sapiens, UniProt Q9NZQ7); assay: PD-1/PD-L1 biochemical protein-protein interaction assay (ALPHA); type: binding; conditions: 0.3 nM His tagged PD-L1, 2.5 nM biotinylated Fc-PD-1, 60 minutes at 25° C., read-out: IC50 PD-L1-PD-1 Alpha IC50-mono PD-L1-fcP-D1
Summary of the method: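 Extracellular-domain binding of His-tagged PD-L1 (0.3 nM final) to biotinylated Fc-PD-1 (2.5 nM final) was measured by ALPHA in 25 mM Hepes pH 7.4, 150 mM NaCl, 3.4 mM EDTA, 0.005% Tween 20, 0.01% BSA. After 60 min at 25° C, anti-His acceptor and streptavidin donor beads were added; IC50 from four-parameter fits.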

PD-1/PD-L1 interaction = biological target: T1, PD-1/PD-L1 interaction (Homo sapiens, UniProt Q9NZQ7); assay: PD-1/PD-L1 NFAT reporter co-culture assay; type: cell-based; conditions: Jurkat PD-1 NFAT-luciferase cells co-cultured with aAPC-PD-L1 CHO cells, 6 hrs at 37° C.; read-out: EC50 NFAT Luciferase
T1 construct: expressed in transfected cells; host or cells: CHO cells (aAPC-PD-L1) co-cultured with Jurkat cells overexpressing PD-1 and an NFAT-luciferase reporter
Summary of the method: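 First, CHO cells displaying anti-CD3 antibody and PD-L1 were plated overnight. Next, compound-treated PD-1 Jurkat NFAT-luciferase reporter cells in 2% FBS RPMI were added for 6 h at 37 °C. Finally, ONE-Glo luminescence was read and EC50 values fitted with a four-parameter equation.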

PD-L1 = biological target: T2, PD-L1 (Homo sapiens, UniProt Q9NZQ7); assay: PD-L1/PD-L1 dimerization biochemical protein-protein interaction assay (ALPHA); type: binding; conditions: compound-induced PD-L1 dimerization, head prints '1 nM' (0.5 nM His-tagged PD-L1 and 0.5 nM FLAG-tagged PD-L1), read-out: AC50 PDL1 Dimer Alpha 1 nM
T2 construct: determine if they can specifically dimerize the extracellular domains of PD-L1
Summary of the method: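 ALPHA proximity assay of compound-induced dimerization of 0.5 nM His-tagged and 0.5 nM FLAG-tagged PD-L1 extracellular domains in Hepes pH 7.4 buffer, 2 h at 25 °C. Anti-His acceptor then anti-FLAG donor beads, 60 min each; AC50 from four-parameter fit.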

T1 sequence (Q9NZQ7 19-290): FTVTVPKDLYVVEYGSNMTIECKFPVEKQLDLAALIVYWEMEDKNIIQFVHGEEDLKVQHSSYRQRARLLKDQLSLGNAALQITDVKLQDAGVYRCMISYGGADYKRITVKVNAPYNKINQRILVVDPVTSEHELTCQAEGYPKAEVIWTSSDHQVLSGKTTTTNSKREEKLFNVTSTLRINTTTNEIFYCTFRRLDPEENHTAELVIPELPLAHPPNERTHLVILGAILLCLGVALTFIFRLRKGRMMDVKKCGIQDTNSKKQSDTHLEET
PD-1/PD-L1, sequence (Q9NZQ7 19-238 limits assumed): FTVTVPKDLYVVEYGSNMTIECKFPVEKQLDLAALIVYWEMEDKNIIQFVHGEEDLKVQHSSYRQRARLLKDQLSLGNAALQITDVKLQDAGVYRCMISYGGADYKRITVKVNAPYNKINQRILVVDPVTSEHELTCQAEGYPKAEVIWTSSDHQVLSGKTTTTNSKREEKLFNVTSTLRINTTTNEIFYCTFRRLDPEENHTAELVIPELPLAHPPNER
T2 sequence (Q9NZQ7 19-238 limits assumed): as above
T2 sequence (Q9NZQ7 19-238 limits assumed): as above

Cc1c(COc2cc(OCc3cncc(C#N)c3)c(CN[C@@](C)(CO)C(=O)O)cc2Cl)cccc1-c1cccc(Nc2nccc3cc(CNCCO)cnc23)c1C [Example 557]
IC50 (PD-1/PD-L1): 0.201 nM
EC50 (PD-1/PD-L1 interaction): 135 nM
AC50 (PD-L1): 137 nM

COc1nc(O[C@H]2CCc3c(-c4cccc(-c5ccc(CNC[C@@H]6CCC(=O)N6)cc5)c4Cl)cccc32)c(Cl)cc1CN1CC[C@@H](C(=O)O)C1 [Example 722]
IC50 (PD-1/PD-L1): 0.064 nM
EC50 (PD-1/PD-L1 interaction): 47 nM
AC50 (PD-L1): 16 nM

COc1nc(O[C@H]2CCc3c(-c4cccc(-c5ccc6c(c5)C[C@@H](N)C6)c4Cl)cccc32)c(Br)cc1CNC[C@@H]1CCC(=O)N1 [Example 794]
IC50 (PD-1/PD-L1): 1.73 nM
EC50 (PD-1/PD-L1 interaction): 794 nM
AC50 (PD-L1): 94.2 nM

COc1nc(O[C@H]2CCc3c(-c4cccc5c4CC[C@@H]5Oc4nc(OCc5cncc(C#N)c5)c(CNC[C@@H](O)CC(=O)O)cc4Br)cccc32)c(Br)cc1CNC[C@@H](O)CC(=O)O [Example 679]
IC50 (PD-1/PD-L1): 0.058 nM
EC50 (PD-1/PD-L1 interaction): 64 nM
AC50 (PD-L1): 101 nM

COc1nc(O[C@H]2CCc3c(-c4cccc(-c5ccc(CNC[C@@H]6CCC(=O)N6)cc5)c4Cl)cccc32)c(Cl)cc1CN1CCCC[C@H]1C(=O)O [Example 715]
IC50 (PD-1/PD-L1): 0.064 nM
EC50 (PD-1/PD-L1 interaction): 35 nM
AC50 (PD-L1): 7.89 nM

Cc1c(COc2cc(OCc3cncc(C#N)c3)c(CN[C@@](C)(CO)C(=O)O)cc2Cl)cccc1-c1cccc(-c2ccc(OCCN3CCC4(CC3)CNC(=O)C4)cc2)c1C [Example 521]
IC50 (PD-1/PD-L1): 0.064 nM
EC50 (PD-1/PD-L1 interaction): 106 nM
AC50 (PD-L1): 125 nM

N#Cc1cc(C#N)cc(COc2nc(OCc3cccc(-c4cccc(-c5ccc(OCCN6CC7(CCC(=O)N7)C6)cc5)c4Cl)c3Cl)c(Cl)cc2CNC[C@@H](O)CC(=O)O)c1 [Example 565]
IC50 (PD-1/PD-L1): 0.259 nM
EC50 (PD-1/PD-L1 interaction): 112 nM
AC50 (PD-L1): 73.4 nM

COc1nc(-c2cccc(-c3cccc4c3CC[C@@H]4Oc3nc(OCc4cncc(C#N)c4)c(CN[C@@](C)(CO)C(=O)O)cc3Cl)c2Cl)ccc1CN1CC2(CCC(=O)N2)C1 [Example 684]
IC50 (PD-1/PD-L1): 0.064 nM
EC50 (PD-1/PD-L1 interaction): 36 nM
AC50 (PD-L1): 41.2 nM

Cc1c(COc2cc(OCc3cncc(C#N)c3)c(CN[C@@](C)(CO)C(=O)O)cc2Cl)cccc1-c1cccc(-c2ccc(C3=NCCN3)cn2)c1C [Example 500]
IC50 (PD-1/PD-L1): 0.064 nM
EC50 (PD-1/PD-L1 interaction): 97 nM
AC50 (PD-L1): 50.1 nM

COc1cc(COc2cccc(-c3cccc(COc4cc(OCc5cncc(C#N)c5)c(CNC[C@@H](O)CC(=O)O)cc4Cl)c3C)c2C)c(Cl)cc1CNC[C@@H](O)CC(=O)O [Example 389, (S)-4-((4-(((3′-((4-((((S)-3-carboxy-2-hydroxypropyl)amino)methyl)-2-chloro-5-((5-cyanopyridin-3-yl)methoxy)phenoxy)methyl)-2,2′-dimethyl-[1,1′-biphenyl]-3-yl)oxy)methyl)-5-chloro-2-methoxybenzyl)amino)-3-hydroxybutanoic acid]
IC50 (PD-1/PD-L1): 0.374 nM
EC50 (PD-1/PD-L1 interaction): 306 nM
AC50 (PD-L1): 120 nM

Cc1c(COc2cc(OCc3cncc(C#N)c3)c(CN[C@@](C)(CO)C(=O)O)cc2Cl)cccc1-c1cccc(-c2ccc(OCCN[C@@](C)(CO)C(=O)O)cc2)c1C [Example 313, (S)-2-((4-((4″-(2-(((S)-2-carboxy-1-hydroxypropan-2-yl)amino)ethoxy)-2,2′-dimethyl-[1,1′:3′,1″-terphenyl]-3-yl)methoxy)-5-chloro-2-((5-cyanopyridin-3-yl)methoxy)benzyl)amino)-3-hydroxy-2-methylpropanoic acid]
IC50 (PD-1/PD-L1): 0.051 nM
EC50 (PD-1/PD-L1 interaction): 152 nM
AC50 (PD-L1): 91.3 nM

COc1nc(-c2cccc(-c3cccc4c3CC[C@@H]4Oc3nc(OC)c(CN4C[C@@H](C)[C@H](C(=O)O)C4)cc3Cl)c2Cl)ccc1CNC[C@@H]1CCC(=O)N1 [Example 765]
IC50 (PD-1/PD-L1): 0.064 nM
EC50 (PD-1/PD-L1 interaction): 11 nM
AC50 (PD-L1): 13.1 nM

COc1nc(O[C@H]2CCc3c(-c4cccc(-c5ccc(CN6CC7(C6)CN(C(C)=O)C7)cc5)c4Cl)cccc32)c(Cl)cc1CN1CC[C@@H](C(=O)O)C1 [Example 771]
IC50 (PD-1/PD-L1): 0.064 nM
EC50 (PD-1/PD-L1 interaction): 130 nM
AC50 (PD-L1): 45 nM

COc1nc(O[C@H]2CCc3c(-c4cccc(-c5ccc(C6=NCCN6)c(OC)n5)c4Cl)cccc32)c(Br)cc1CN[C@](C)(CO)C(=O)O [Example 788]
IC50 (PD-1/PD-L1): 0.064 nM
EC50 (PD-1/PD-L1 interaction): 39 nM
AC50 (PD-L1): 11.8 nM

COc1nc(-c2cccc(-c3cccc4c3CC[C@@H]4Oc3nc(OC)c(CNC[C@@H]4CCC(=O)N4)cc3Br)c2Cl)ccc1CNC[C@@H]1CCC(=O)N1 [Example 736]
IC50 (PD-1/PD-L1): 0.153 nM
EC50 (PD-1/PD-L1 interaction): 22 nM
AC50 (PD-L1): 18.4 nM

COc1nc(O[C@H]2CCc3c(-c4cccc(-c5ccc(CNC[C@@H]6CCC(=O)N6)cc5)c4Cl)cccc32)c(Cl)cc1CN[C@H]1CCC[C@H]1O [Example 716]
IC50 (PD-1/PD-L1): 0.403 nM
EC50 (PD-1/PD-L1 interaction): 343 nM
AC50 (PD-L1): 15.1 nM

N#Cc1cncc(COc2nc(O[C@H]3CCc4c(-c5cccc(-c6ccc(OCCNCCO)cc6)c5Cl)cccc43)c(Br)cc2CNC[C@@H](O)CC(=O)O)c1 [Example 662]
IC50 (PD-1/PD-L1): 0.139 nM
EC50 (PD-1/PD-L1 interaction): 83 nM
AC50 (PD-L1): 14.5 nM

Cc1c(COc2cc(OCc3cncc(C#N)c3)c(CNC[C@@H](O)CC(=O)O)cc2Cl)cccc1-c1cccc(Nc2nccc3cc(CNCCO)cnc23)c1C [Example 438]
IC50 (PD-1/PD-L1): 0.476 nM
EC50 (PD-1/PD-L1 interaction): 222 nM
AC50 (PD-L1): 168 nM

Cc1c(COc2cc(OCc3cncc(C#N)c3)c(CN[C@@](C)(CO)C(=O)O)cc2Cl)cccc1-c1cccc(-c2ccc3c(cnn3CCN3CC[C@@H](O)C3)n2)c1C [Example 475]
IC50 (PD-1/PD-L1): 0.088 nM
EC50 (PD-1/PD-L1 interaction): 117 nM
AC50 (PD-L1): 134 nM

Cc1c(COc2cc(OCc3cncc(C#N)c3)c(CNC[C@@H](O)CC(=O)O)cc2Cl)cccc1-c1cccc(-c2ccc(CNC[C@@H](O)CC(=O)O)c(-c3ccccc3)c2)c1C [Example 514]
IC50 (PD-1/PD-L1): 0.735 nM
EC50 (PD-1/PD-L1 interaction): 156 nM
AC50 (PD-L1): 359 nM

COc1nc(O[C@H]2CCc3c(-c4cccc(-c5cc(C)c(CNC[C@@H]6CCC(=O)N6)c(OC)n5)c4Cl)cccc32)c(Cl)cc1CN1CC(C(=O)O)C1 [Example 487]
IC50 (PD-1/PD-L1): 0.064 nM
EC50 (PD-1/PD-L1 interaction): 16 nM
AC50 (PD-L1): 25.2 nM

Cc1c(COc2cc(OCc3cncc(C#N)c3)c(CNC[C@@H](O)CC(=O)O)cc2Cl)cccc1-c1cccc(-c2ccc(CNC[C@@H](O)CC(=O)O)c(OCC#N)c2)c1C [Example 433]
IC50 (PD-1/PD-L1): 0.08 nM
EC50 (PD-1/PD-L1 interaction): 290 nM
AC50 (PD-L1): 167 nM

COc1nc(-c2cccc(-c3cccc4c3CC[C@@H]4Oc3nc(OC)c(CN4CC[C@H](C(=O)O)C4)cc3Cl)c2Cl)ccc1CNC[C@H]1C[C@H](O)C1 [Example 712]
IC50 (PD-1/PD-L1): 0.064 nM
EC50 (PD-1/PD-L1 interaction): 12 nM
AC50 (PD-L1): 33 nM

COc1nc(-c2cccc(-c3cccc4c3CC[C@@H]4Oc3nc(OCc4cncc(C#N)c4)c(CN[C@@](C)(CO)C(=O)O)cc3Cl)c2C)ccc1C1=NCCN1 [Example 749]
IC50 (PD-1/PD-L1): 0.064 nM
EC50 (PD-1/PD-L1 interaction): 77 nM
AC50 (PD-L1): 16.8 nM

COc1nc(-c2cccc(-c3cccc4c3CC[C@@H]4Oc3nc(OC)c(CN4CC(C(=O)O)C4)cc3Cl)c2Cl)ccc1CN1CC2(CCC(=O)N2)C1 [Example 713]
IC50 (PD-1/PD-L1): 0.064 nM
EC50 (PD-1/PD-L1 interaction): 25 nM
AC50 (PD-L1): 69.4 nM
